From US10723699B2 (Hyundai Pharm Co., Ltd., priority 2015, dated 2020)
Where two headings read alike, the source gives them in different places.

Molecular target: T1, G protein-coupled receptor 119 (GPR-119) (Mesocricetus auratus, UniProt A0A1U8CD06)
T1 construct: hamster-derived β-cells containing G protein-coupled receptor 119 (GPR-119), HIT-T15 cells; host or cells: HIT-T15 (hamster pancreatic β-cells)
T1 sequence (A0A1U8CD06 1-334): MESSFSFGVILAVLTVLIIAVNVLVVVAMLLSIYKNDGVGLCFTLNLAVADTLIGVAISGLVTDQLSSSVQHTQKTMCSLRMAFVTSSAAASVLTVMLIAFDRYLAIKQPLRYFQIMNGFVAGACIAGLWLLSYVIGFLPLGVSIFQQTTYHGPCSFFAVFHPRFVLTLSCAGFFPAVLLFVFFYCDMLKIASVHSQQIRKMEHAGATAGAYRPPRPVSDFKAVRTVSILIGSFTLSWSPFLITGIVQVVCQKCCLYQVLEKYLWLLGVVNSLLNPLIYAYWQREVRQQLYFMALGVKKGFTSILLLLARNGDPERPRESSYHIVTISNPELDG
Assay: cAMP activity in HIT-T15 cells (cAMP dynamic kit, FRET)
Assay type: cell-based, hamster
Method: To check whether the cyclohexene derivatives according to the present invention activate cyclic adenosine monophosphate (cAMP), experiments were carried out, as follows.
The HIT-T15 cells were plated on a 96-well plate at 60,000 cells per well. On the next day of plating, the cells were treated with a varying concentration of each of the example compounds according to the present invention, and incubated at 37° C. for an hour. In this case, each of the treated compounds was used at six concentrations, ranging from 0.0032 to 10 μM, to treat the cells.
The cyclic adenosine monophosphate (cAMP) activity was measured according to the manufacturer's instruction using a cAMP dynamic kit commercially available from Cis Bio Inc. (Bedford, Mass.). The cells were lysed, and a level of cAMP was determined by a competitive immunoassay using D2-labeled cAMP and a cryptate-labeled anti-cAMP antibody. Fluorescence was read in Flex Station (Molecular Devices). […] Unlabeled cAMP in the cell lysate competed with the D2-labeled cAMP against the cryptate-labeled antibody. Since a decrease in the measured intensity of the FRET signals represents a level of cAMP in the cells, the cAMP activities of the compounds are calculated as a change in FRET signals by adjusting an amount of dimethyl sulfoxide (DMSO).

[1] = 1 hour at 37° C., six concentrations 0.0032 to 10 μM, read-out: EC50

| SMILES | EC50 [1] | EC50 (Table 2, read-out: EC50 value) |
| --- | --- | --- |
| CCc1cnc(N2CCC(COc3ccc(C4=CCC(C(=O)NC5CCCCC5)CC4)cc3F)CC2)nc1 (centres unmarked) [Example 305, N-cyclohexyl-4-(4-((1-(5-ethylpyrimidin-2-yl)piperidin-4-yl)methoxy)-3-fluorophenyl)cyclohex-3-enecarboxamide] | 24 nM | ≤ 50 nM |
| CC(C)(C)OC(=O)N1CCC(COc2ccc(C3=CCC(C(=O)N4CCCCC4)CC3)nc2)CC1 (centres unmarked) [Example 311, tert-butyl 4-((6-(4-(piperidine-1-carbonyl)cyclohex-1-enyl)pyridin-3-yloxy)methyl)piperidine-1-carboxylate] | 79 nM | – |
| CCc1cnc(N2CCC(COc3ccc(C4=CCC(C(=O)NCCF)CC4)cc3F)CC2)nc1 (centres unmarked) [Example 322, 4-(4-((1-(5-ethylpyrimidin-2-yl)piperidin-4-yl)methoxy)-3-fluorophenyl)-N-(2-fluoroethyl)cyclohex-3-enecarboxamide] | 62 nM | – |
| CC(C)c1noc(N2CCC(COc3ccc(C4=CCC(C(=O)N5CCC(CCO)CC5)CC4)cc3F)CC2)n1 (centres unmarked) [Example 335, (4-(3-fluoro-4-((1-(3-isopropyl-1,2,4-oxadiazol-5-yl)piperidin-4-yl)methoxy)phenyl)cyclohex-3-enyl)(4-(2-hydroxyethyl)piperidin-1-yl)methanone] | 18 nM | ≤ 50 nM |
| CC(C)(C)OC(=O)N1CCC(COc2ccc(C3=CCC(C(=O)N4CCC(C#N)CC4)CC3)cc2)CC1 (centres unmarked) [Example 262] | 7 nM | ≤ 50 nM |
| CCc1cnc(N2CCC(COc3ccc(C4=CCC(C(=O)NCC(C)(C)CO)CC4)cc3)CC2)nc1 (centres unmarked) [Example 177, 4-(4-((1-(5-ethylpyrimidin-2-yl)piperidin-4-yl)methoxy)phenyl)-N-(3-hydroxy-2,2-dimethylpropyl)cyclohex-3-enecarboxamide] | – | ≤ 50 nM |
| CCc1cnc(N2CCC(COc3ccc(C4=CCC(C(=O)N5CCSCC5)CC4)cc3F)CC2)nc1 (centres unmarked) [Example 300, (4-(4-((1-(5-ethylpyrimidin-2-yl)piperidin-4-yl)methoxy)-3-fluorophenyl)cyclohex-3-enyl)(thiomorpholino)methanone] | 8.5 nM | ≤ 50 nM |
| CCc1cnc(N2CCC(COc3ccc(C4=CCC(C(=O)NCC(F)(F)F)CC4)cc3F)CC2)nc1 (centres unmarked) [Example 307, 4-(4-((1-(5-ethylpyrimidin-2-yl)piperidin-4-yl)methoxy)-3-fluorophenyl)-N-(2,2,2-trifluoroethyl)cyclohex-3-enecarboxamide] | 88 nM | – |
| CC(C)c1noc(N2CCC(COc3ccc(C4=CCC(C(=O)N5CCOCC5)CC4)cn3)CC2)n1 (centres unmarked) [Example 317, (4-(6-((1-(3-isopropyl-1,2,4-oxadiazol-5-yl)piperidin-4-yl)methoxy)pyridin-3-yl)cyclohex-3-enyl)(morpholino)methanone] | 50 nM | ≤ 50 nM |
| CC(C)c1noc(N2CCC(COc3ccc(C4=CCC(C(=O)N5CCCC5)CC4)cc3F)CC2)n1 (centres unmarked) [Example 331, (4-(3-fluoro-4-((1-(3-isopropyl-1,2,4-oxadiazol-5-yl)piperidin-4-yl)methoxy)phenyl)cyclohex-3-enyl)(pyrrolidin-1-yl)methanone] | 11 nM | ≤ 50 nM |
| CC(C)(C)OC(=O)N1CCC(COc2ccc(C3=CCC(C(=O)N4CCC5(C=Cc6ccccc65)CC4)CC3)cc2)CC1 (centres unmarked) [Example 264, tert-butyl 4-((4-(4-(spiro[indene-1,4′-piperidin]-1′-ylcarbonyl)cyclohex-1-enyl)phenoxy)methyl)piperidine-1-carboxylate] | – | ≤ 50 nM |
| CCc1cnc(N2CCC(COc3ccc(C4=CCC(C(=O)N5C/C(=N\OC)C(CO)(CO)C5)CC4)cc3)CC2)nc1 (centres unmarked) [Example 253, (Z)-(3,3-bis(hydroxymethyl)-4-(methoxyimino)pyrrolidin-1-yl)(4-(4-((1-(5-ethylpyrimidin-2-yl)piperidin-4-yl)methoxy)phenyl)cyclohex-3-enyl)methanone] | – | ≤ 50 nM |
| CON=C1CCN(C(=O)C2CC=C(c3ccc(OCC4CCN(C(=O)OC(C)(C)C)CC4)cc3)CC2)CC1 (centres unmarked) [Example 270, tert-butyl 4-((4-(4-(4-(methoxyimino)piperidine-1-carbonyl)cyclohex-1-enyl)phenoxy)methyl)piperidine-1-carboxylate] | – | ≤ 50 nM |
| CCc1cnc(N2CCC(COc3ccc(C4=CCC(C(=O)N5CCC(N6CCCCC6)CC5)CC4)cc3F)CC2)nc1 (centres unmarked) [Example 297, 1,4′-bipiperidin-1′-yl(4-(4-((1-(5-ethylpyrimidin-2-yl)piperidin-4-yl)methoxy)-3-fluorophenyl)cyclohex-3-enyl)methanone] | 120 nM | – |

Now from value to compound:

| EC50 [1] | EC50 (Table 2, read-out: EC50 value) | SMILES |
| --- | --- | --- |
| 39 nM | ≤ 50 nM | CC(C)c1noc(N2CCC(COc3ccc(C4=CCC(C(=O)NCC(C)(C)CO)CC4)cc3F)CC2)n1 (centres unmarked) [Example 371, 4-(3-fluoro-4-((1-(3-isopropyl-1,2,4-oxadiazol-5-yl)piperidin-4-yl)methoxy)phenyl)-N-(3-hydroxy-2,2-dimethylpropyl)cyclohex-3-enecarboxamide] |
| 88 nM | – | CCc1cnc(N2CCC(COc3ccc(C4=CCC(C(=O)N5CC(F)(F)C(F)(F)C5)CC4)c(F)c3)CC2)nc1 (single isomer, unassigned; (-)) [Example 463, (−)-(4-(4-((1-(5-ethylpyrimidin-2-yl)piperidin-4-yl)methoxy)-2-fluorophenyl)cyclohex-3-enyl)(3,3,4,4-tetrafluoropyrrolidin-1-yl)methanone] |
| 27 nM | ≤ 50 nM | CCc1cnc(N2CCC(COc3ccc(C4=CCC(C(=O)N5CCCC5)CC4)cn3)CC2)nc1 (centres unmarked) [Example 349, (4-(6-((1-(5-ethylpyrimidin-2-yl)piperidin-4-yl)methoxy)pyridin-3-yl)cyclohex-3-enyl)(pyrrolidin-1-yl)methanone] |
| 25 nM | ≤ 50 nM | CCc1cnc(N2CCC(COc3ccc(C4=CCC(C(=O)N5CCN(C(=O)NC(C)C)CC5)CC4)cc3)CC2)nc1 (centres unmarked) [Example 413, 4-(4-(4-((1-(5-ethylpyrimidin-2-yl)piperidin-4-yl)methoxy)phenyl)cyclohex-3-enecarbonyl)-N-isopropylpiperazine-1-carboxamide] |
| 14 nM | – | CCc1cnc(N2CCC(COc3ccc(C4=CCC(C(=O)N5CCN(C6CC6)CC5)CC4)cc3)CC2)nc1 (centres unmarked) [Example 395, (4-cyclopropylpiperazin-1-yl)(4-(4-((1-(5-ethylpyrimidin-2-yl)piperidin-4-yl)methoxy)phenyl)cyclohex-3-enyl)methanone] |
| 45 nM | ≤ 50 nM | CCc1cnc(N2CCC(COc3ccc(C4=CCC(C(=O)N5CCCCC5)CC4)cc3C#N)CC2)nc1 (centres unmarked) [Example 385, 2-((1-(5-ethylpyrimidin-2-yl)piperidin-4-yl)methoxy)-5-(4-(piperidine-1-carbonyl)cyclohex-1-enyl)benzonitrile] |
| 59 nM | – | O=C(OC(C(F)(F)F)C(F)(F)F)N1CCC(COc2ccc(C3=CCC(C(=O)N4CCCC4)CC3)cc2F)CC1 (centres unmarked) [Example 405, 1,1,1,3,3,3-hexafluoropropan-2-yl 4-((2-fluoro-4-(4-(pyrrolidine-1-carbonyl)cyclohex-1-enyl)phenoxy)methyl)piperidine-1-carboxylate] |
| 110 nM | – | CCc1cnc(N2CCC(COc3ccc(C4=CCC(C(=O)N5CCC(C#N)CC5)CC4)cc3C(F)(F)F)CC2)nc1 (centres unmarked) [Example 398, 1-(4-(4-((1-(5-ethylpyrimidin-2-yl)piperidin-4-yl)methoxy)-3-(trifluoromethyl)phenyl)cyclohex-3-enecarbonyl)piperidine-4-carbonitrile] |
| 10.5 nM | ≤ 50 nM | CCc1cnc(N2CCC(COc3ccc(C4=CCC(C(=O)N(C)CCCO)CC4)cc3F)CC2)nc1 (centres unmarked) [Example 376, 4-(4-((1-(5-ethylpyrimidin-2-yl)piperidin-4-yl)methoxy)-3-fluorophenyl)-N-(3-hydroxypropyl)-N-methylcyclohex-3-enecarboxamide] |
| 29 nM | ≤ 50 nM | CCc1cnc(N2CCC(COc3ccc(C4=CCC(C(=O)N5CCC(CO)CC5)CC4)c(F)c3)CC2)nc1 (centres unmarked) [Example 432, (4-(4-((1-(5-ethylpyrimidin-2-yl)piperidin-4-yl)methoxy)-2-fluorophenyl)cyclohex-3-enyl)(4-(hydroxymethyl)piperidin-1-yl)methanone] |
| 46 nM | ≤ 50 nM | CC(C)c1noc(N2CCC(COc3ccc(C4=CCC(C(=O)N5CCN(C6CC6)CC5)CC4)cn3)CC2)n1 (centres unmarked) [Example 355, (4-cyclopropylpiperazin-1-yl)(4-(6-((1-(3-isopropyl-1,2,4-oxadiazol-5-yl)piperidin-4-yl)methoxy)pyridin-3-yl)cyclohex-3-enyl)methanone] |
